Test results reported in patent US9364469B1, “Identification of a new AMPK activator for treatment of lung cancer” (Macau University of Science and Technology, priority 2015, dated 2016).

Columns and labels:
H1975 cells [1] = assay: MTT cytotoxicity assay; type: cell-based; details: 72 h treatment, read-out: IC50 (cell proliferation, MTT)
Protocol: H1975 was purchased from ATCC (American type culture collection) and was cultivated with RPMI 1640 medium supplement with 10% fetal bovine serum (Gibco, Big Cabin, Oklahoma, Me., USA), 100 U/mL, penicillin and 100 μg/mL and streptomycin (Gibco, Big Cabin, Oklahoma, Me., USA). The cells were cultured in incubator with 5% CO2 at 37° C.
Cells were seeded in a 96-well microplate with 5000 cells/well confluence, and put into the incubator overnight for cell adhesion. Different concentrations of the drug D561-0775 were added with Dimethyl sulfoxide (DMSO) as vehicle control. The microplates were incubated for another 72 hours. The whole experiment was repeated in triplicate. 10 μL of MTT (5 mg/mL) solution was added to each well. The plate was placed back into the incubator for 4 hours. After that, 100 μL of resolved solution (10% SDS and 0.1 mM HCL) was added to each well. Before dissolving the formazan crystals, the microplate was put back into the incubator for another 4 hours. The absorbance of the plate was measured at 570 nm with reference at 650 nm by a microplate reader (Tecan, Morrisville, N.C., USA). Cell viability was calculated by percentages of the absorbance of the treatment group divided by the absorbance of untreated group. At least three independent experiments were performed for data analysis and presentation.

AMPK kinase = assay: AMPK enzyme activity assay (CycLex AMPK Kinase Assay Kit); type: biochemical; details: indicated concentrations, n=3, ** p<0.005, ***p<0.001
Description: The CycLex AMPK Kinase Assay Kit (CycLex Co., Ltd., Nagano, Japan) was used to detect the activation of AMPK by D561-0775. AMP was used as positive control, compound c was used as AMPK inhibitor, and AMPK kinase was used for representing the basal level.

H1975 cells [2] = assay: Apoptosis assay (Annexin V/PI flow cytometry, morphology observation); type: cell-based; details: 48 h
Protocol: H1975 cells (1×10^5 cells/well) were seeded in a 6-well plate for 24 hours, and treated with the indicated concentrations of D561-0775 for an additional 48 hours at 37° C. After 48 hours, the cells were washed by ice-cold 1×PBS once and harvested by trypsination. Then cells were centrifuged, collected and re-suspended in ice-cold 1×PBS. After removing the supernatants, cell pellets were re-suspended in 100 μL 1× Annexin-binding buffer. The cells were then double-stained with Annexin-V FITC and PI (100 μg/mL) of 2 μL respectively for 15 min at room temperature in dark. After that, 300 μL 1× Annexin-binding buffer was added. Apoptotic cells were quantitatively counted by a BD Aria III Flow Cytometer (BD Biosciences, San Jose, Calif., USA)

ACC = assay: Western blot analysis of ACC phosphorylation; type: cell-based; details: H1975 cells, 24 hours
Protocol: (§1) After incubating H1975 cells with D561-0775 for 24 hours, H1975 cells were harvested and washed with cold 1×PBS. Then, cells were lysed with ice-cold RIPA lysis buffer with protease and phosphatase inhibitors added to extract the cell protein extraction. The supernatants were collected by centrifugation at 12,000 g, for 5 minutes. The quantitation of total protein extraction was measured by Bio-Rad DCTM protein assay kit (Bio-Rad, Philadelphia, Pa., USA). Then 30 μg of protein was loaded and electrophoretically separated on 8% SDS-PAGE gel and then transferred to Nitrocellulose (NC) membrane. Membranes were blocked with 5% non-fat milk and […] containing 0.1% Tween-20 (TBST) for 1 hour at room temperature. After 1 hour, membranes were incubated with primary anti-bodies (1:1000 dilution) against GAPDH, total/phosphor-ACC, total-AMPK, and (1:500 dilution) against phosphor-AMPK, at 4° C. with gently shaking overnight. Membranes were washed with TBST for 3 times (5 minutes/time), and incubated with secondary fluorescent antibody (1:10000 dilutions) for 1 hour at room temperature. After rewashing the membranes with TBST for 3 times (15 minutes/time), the stripes were visualized by LI-COR Odessy scanner (Belfast, Me., USA).

AMPK = assay: Western blot analysis of AMPK phosphorylation; type: cell-based; details: H1975 cells, 24 hours
Protocol: as §1

[3] = 20 μM treatment group, **p<0.01, n=3

Compound: N#Cc1nc(-c2ccc(COc3ccc(Br)cc3)o2)oc1NCc1cccnc1 [D561-0775]
- IC50 (H1975 cells [1]): 9.59 ± 1.73 µM
- AMPK kinase activity (fold of AMPK kinase alone group) (AMPK kinase): enhanced in a dose-dependent manner
- percentage of apoptotic cells vs control group (H1975 cells [2]; [3]): significant higher percentage of apoptotic cells
- percentage of viable cells vs control group (H1975 cells [2]; [3]): lower percentage of viable cells
- apoptosis induction (flow cytometry) (H1975 cells [2]; Annexin V/PI): induced significant level of apoptosis in a dose-dependent manner
- cell morphology (H1975 cells [2]; morphology observation): floated and rounded-up starting at 20 μM
- phosphorylation of ACC (ACC): activated phosphorylation of both AMPK and ACC in a dose-dependent manner
- phosphorylation of AMPK (AMPK): activated phosphorylation of both AMPK and ACC in a dose-dependent manner
